Experimental data reported in article PMC7731379, “Withanolide-Type Steroids from Withania aristata as Potential Anti-Leukemic Agents” (Molecules, 2020).
Read-outs that look alike come from different tables or passages of the source.

Tests used:
[1] = tested on: Vero (African green monkey kidney) cell line; assay: MTT cell viability assay, non-tumoral Vero cells; details: read-out: Cytotoxic activity IC50, Vero; MTT, 48 h incubation; mean ± SD of three independent experiments
Protocol: (§1) HL-60 (human promyelocytic leukemia cell line) and Vero (African green monkey kidney) cell lines from American Type Culture Collection (ATCC-LGC) were each grown in Dulbecco’s modified Eagle’s medium (DMEM) with 4.5 g/L glucose (Sigma-Aldrich), supplemented with 10% fetal bovine serum (Gibco), 1% of a penicillin–streptomycin mixture (10.000 and 10 mg/mL, respectively), and 200 mM L-glutamine. Cells were maintained at 37 °C in 5% CO2 and 98% humidity.
(§2) Viable cells were assessed using the colorimetric MTT [3-(4,5-dimethylthiazol-2-yl)-2,5-diphenyl tetrazolium bromide reduction assay [49]. A cell suspension (1 × 10^4 /200 μL/well) in log-phase of growth seeded in DMEM, supplemented with 5% fetal bovine serum in microtiter well plates (96 wells, Iwaki, London, UK) were added to compounds predissolved in dimethylsulphoxide (DMSO) at different concentrations. After 48 h of incubation, 20 μL/well of the MTT solution (5 mg/mL in phosphate buffered saline, PBS) were added and plates incubated for 4 h at 37 °C. Subsequently, the medium/MTT solutions were removed carefully by aspiration and replaced with 150 μL/well of DMSO to dissolve the formazan crystals. Absorbance was measured in a microplate reader (Infinite M200, Tecan) at a wavelength of 550 nm. Solvent control cultures were considered 100% and percentage of viable treated cells were plotted against compound concentrations. The 50% cell viability value (IC50) was calculated from the curve. Each experiment was performed at least three times in triplicates. Data are given in arithmetic means ± SD. Selectivity ratio was defined as IC50 value for the tumoral cell line divided by IC50 value for the Vero cell line.

[2] = tested on: HL-60 (human promyelocytic leukemia cell line); assay: MTT cell viability (antiproliferative) assay, HL-60; details: for SI (selectivity index): Vero (IC50) on HL-60 (IC50); for IC50: mean ± SD of three independent experiments
Protocol: as §1, §2

[3] = MTT cell viability assay, non-tumoral Vero cells; details: African green monkey, Vero cells (African green monkey kidney, non-tumoral)
Protocol: as §1, §2

in vitro = details: African green monkey
Protocol: as §1, §2

[4] = tested on: HL-60 (human promyelocytic leukemia cell line); details: 48 h
Protocol: as §1, §2

[5] = read-out: Cytotoxic activity IC50, HL 60, MTT, 48 h incubation
[6] = Cytotoxic activity IC50, Vero, MTT, 48 h incubation, mean ± SD of three independent experiments
[7] = Homo sapiens, HL-60, 48 h, read-out: Cytotoxic activity IC50, HL 60, MTT, 48 h incubation

| Molecule | SI (selectivity index) [2] | IC50 [2, 7] [µM] | IC50 at 48 h (in vitro; Cytotoxic activity IC50, Vero) [µM] | other results |
| --- | --- | --- | --- | --- |
| 4β,16β,27-trihydroxy-1-oxo-witha-2,5,17(20),24-tetraenolide [Compound 9] | 1.7 |  |  | IC50 [1]: 25.7 ± 0.65 µM; IC50 [2, 5]: 14.8 ± 0.68 µM |
| 4β,16β-dihydroxy-1-oxo-witha-2,5,17(20),24-tetraenolide [Compound 10] | >2.4 |  |  | IC50 [1]: > 40 µM; IC50 [2, 5]: 16.8 ± 0.75 µM |
| 16β,27-dihydroxy-1,4-dioxo-witha-2,5,17(20),24-tetraenolide [Compound 11] | >1.4 |  |  | IC50 [1]: > 40 µM; IC50 [2, 5]: 27.8 ± 0.45 µM |
| CC1=C(CO)C(=O)OC(C(C)C2(O)CCC3C4CC(O)C56C=CC(OO5)C(=O)C6(C)C4CCC32C)C1 (stereo not drawn) [Compound 1, 6β,17α,27-Trihydroxy-2α,5α-dioxan-1-oxo-witha-3,24-dien-26,22-olide] | >3.1 |  |  | IC50 at 48 h [3]: > 40 µM; IC50 [2, 5]: 12.8 ± 0.24 µM |
| CC1=C(CO)C(=O)OC(C(C)C2(O)CCC3C4CC(O)C56C=CC(OO5)C(=O)C6(C)C4CCC32C)C1 (stereo not drawn) [Compound 2, 6β,17α,27-Trihydroxy-2β,5β-dioxan-1-oxo-witha-3,24-dien-26,22-olide] | >1.5 |  |  | IC50 [1]: > 40 µM; IC50 [2, 5]: 26.7 ± 0.6 µM |
| CC1=C(CO)C(=O)OC(C(C)C2CCC3C4CC(O)C56C=CC(OO5)C(=O)C6(C)C4CCC23C)C1 (stereo not drawn) [Compound 3, 6β,27-Dihydroxy-2α,5α-dioxan-1-oxo-witha-3,24-dien-26,22-olide] | 4.9 | 3.3 ± 0.45 |  | IC50 at 48 h [3, 6]: 16 ± 0.73 µM |
| CC1=C(CO)C(=O)OC(C(C)C2=CCC3C4CC(O)C56C=CC(OO5)C(=O)C6(C)C4CCC23C)C1 (stereo not drawn) [Compound 4, 6β,27-Dihydroxy-2α,5α-dioxan-1-oxo-witha-3,16,24-trien-26,22-olide] | 5.1 | 6.2 ± 0.1 |  | IC50 at 48 h [3, 6]: 31.6 ± 0.08 µM |
| CC1=C(CO)C(=O)OC(C(C)C2=CCC3C4CC=C5C(O)C=CC(=O)C5(C)C4CCC23C)C1 (stereo not drawn) [Compound 5, 4β,27-dihydroxy-1-oxo-witha-2,5,16,24-tetraenolide] | 0.8 | 8.2 ± 0.09 | 6.4 ± 0.12 |  |
| CC1=C(C)C(=O)OC(C(C)C2=CCC3C4CC=C5C(O)C=CC(=O)C5(C)C4CCC23C)C1 (stereo not drawn) [Compound 6, 4β-hydroxy-1-oxo-witha-2,5,16,24-tetraenolide] | 1.6 | 7 ± 0.55 | 11.5 ± 0.09 |  |
| CC1=C(CO)C(=O)OC(C(C)C2CCC3C4CC=C5C(O)C=CC(=O)C5(C)C4CCC23C)C1 (stereo not drawn) [Compound 7, 4β,27-dihydroxy-1-oxo-witha-2,5,24-trien olide] | >2.6 | 15.7 ± 0.04 | > 40 |  |
| CC1=C(CO)C(=O)OC(C(C)C2=CCC3C4CC=C5C(=O)C=CC(=O)C5(C)C4CCC23C)C1 (stereo not shown) [Compound 8, 27-hydroxy-1,4-dioxo-witha-2,5,16,24-tetraenolide] | 3.7 | 4.2 ± 0.25 | 15.5 ± 0.35 |  |
| CC1=C(CO)C(=O)OC(C(C)C2(O)CCC3C4CC=C5C(O)C=CC(=O)C5(C)C4CCC32C)C1 (stereo not drawn) [Compound 12, 4α,17α,27-trihydroxy-1-oxo-witha-2,5,24-trienolide] | >6.1 | 6.6 ± 0.14 | > 40 | fold more potent than the β-disposition (13) ([2]; HL-60, versus 13): 2 fold |
| CC1=C(CO)C(=O)O[C@@H]([C@@H](C)[C@H]2CC[C@H]3[C@@H]4C[C@H]5O[C@]56[C@@H](O)C=CC(=O)[C@]6(C)[C@H]4CC[C@]23C)C1 [Compound 14, withaferin A] | 33.0 |  |  | IC50 at 48 h [3, 6]: 6.4 ± 0.21 µM; IC50 [2, 5]: 0.2 ± 0.02 µM; IC50 ([2]; read-out: Cytotoxic activity IC50, HL 60, MTT, 48 h incubation, listed as WA): ≤ 0.5 µM |
| CC1=C(C)C(=O)OC(C(C)C2CCC3C4CC5OC56C(O)C=CC(=O)C6(C)C4CCC23C)C1 (stereo not drawn) [Compound 15, 5β,6β-epoxy-4β-hydroxy-1-oxo-witha-2,24-dienolide] |  | ≤ 0.5 | 4.6 ± 0.09 | IC50 [4]: 0.5 ± 0.07 µM |
| CC(=O)OCC1=C(C)CC(C(C)C2CCC3C4CC5OC56C(O)C=CC(=O)C6(C)C4CCC23C)OC1=O (stereo not shown) [Compound 16, 27-acetyl-withaferin A] |  | ≤ 0.5 | 5.7 ± 0.13 | IC50 [4]: 0.4 ± 0.06 µM |
| CC1=C(CO)C(=O)OC(C(C)=C2C(O)CC3C4CC5OC56C(O)C=CC(=O)C6(C)C4CCC23C)C1 (stereo not drawn) [Compound 18, 5β,6β-epoxy-4β,16β,27-trihydroxy-1-oxo-witha-2,17(20),24-trienolide] | 4.2 | 8.2 ± 0.43 | 34.7 ± 0.75 |  |
| CC1=C(CO)C(=O)O[C@@H]([C@@H](C)C2=CC[C@H]3[C@@H]4C[C@H]5O[C@]56[C@@H](O)C=CC(=O)[C@]6(C)[C@H]4CC[C@]23C)C1 [Compound 19, witharistatin] | 3.8 | ≤ 0.5 |  | IC50 [4]: 0.5 ± 0.05 µM; IC50 at 48 h (in vitro): 1.9 ± 0.08 µM |
| CC1=C(C)C(=O)OC(C(C)C2=CCC3C4CC5OC56C(O)C=CC(=O)C6(C)C4CCC23C)C1 (stereo not shown) [Compound 20, 27-deoxy-16-en-withaferin A] | 2.2 | 4.6 ± 0.35 | 10 ± 0.61 |  |
| CC1=C(C)C(=O)OC(C(C)C2CC=C3C4CC5OC56C(O)C=CC(=O)C6(C)C4CCC32C)C1 (stereo not drawn) [Compound 21, 5β,6β-epoxy-4β-hydroxy-1-oxo-22R-witha-2,14,24-trienolide] | 6.9 | 0.9 ± 0.05 | 6.2 ± 0.11 |  |
| CC1=C(CO)C(=O)OC(C(C)C2CCC3C4CC5OC56C(=O)C=CC(=O)C6(C)C4CCC23C)C1 (stereo not shown) [Compound 22, 4-dehydro-withaferin A] | 24.1 | 0.7 ± 0.09 | 16.9 ± 0.7 |  |
| CC1=C(CO)C(=O)OC(C(C)C2(O)CCC3C4CC5OC56C(O)C=CC(=O)C6(C)C4CCC32C)C1 (stereo not drawn) [Compound 23, 5β,6β-epoxy-4β,17α,27-trihydroxy-1-oxo-witha-2,24-dienolide] | >6.2 | 6.5 ± 0.55 | > 40 |  |
| CC1=C(CO)C(=O)O[C@@H]([C@@H](C)[C@H]2CC[C@H]3[C@@H]4C[C@H]5O[C@]56[C@@H](O)[C@@H](O)CC(=O)[C@]6(C)[C@H]4CC[C@]23C)C1 [Compound 24, viscosalactone B] |  | > 40 |  | IC50 at 48 h [3, 6]: > 40 µM |
| CC(=O)OCC1=C(C)CC(C(C)C2CCC3C4CC5OC56C(O)C(O)CC(=O)C6(C)C4CCC23C)OC1=O (stereo not shown) [Compound 25, 27-O-acetyl-viscosalactone B] | 7.9 | 1.5 ± 0.54 | 11.8 ± 0.1 | fold more potent than its corresponding hydroxyl derivative 24 ([2]; HL-60 cytotoxic effect, versus 24): 26 fold |
| CC1=C(CO)C(=O)OC(C(C)C2CCC3C4CC(O)C5(O)C(O)C=CC(=O)C5(C)C4CCC23C)C1 (stereo not shown) [Compound 26, 2,3-dehydrosomnifericin] | >3.0 | 13.4 ± 0.85 | > 40 |  |
| CC1=C(CO)C(=O)OC(C(C)C2CCC3C4CC(Cl)C5(O)C(O)C=CC(=O)C5(C)C4CCC23C)C1 (stereo not drawn) [Compound 27, 6α-chloro-5β-hydroxywithaferin A] | 7.1 | 1.1 ± 0.2 | 7.8 ± 0.36 | fold more potent than its corresponding hydroxyl derivative 26 ([2]; HL-60 cytotoxic effect, versus 26): 12 fold |
| CC1=C(CO)C(=O)OC(C(C)C2CCC3C4CC(O)C5(C=O)C=CC(=O)C5(C)C4CCC23C)C1 (stereo not drawn) [Compound 28, 4β-formyl-6β,27-dihydroxy-1-oxo-witha-2,24-dienolide] | >1.3 | 30.5 ± 0.45 |  | IC50 at 48 h [3]: > 40 µM |
| CC1=C(CO)C(=O)OC(C(C)C2CCC3C4CC(O)C5(C=O)CCC(=O)C5(C)C4CCC23C)C1 (stereo not drawn) [Compound 29, 4β-formyl-6β,27-dihydroxy-1-oxo-witha-24-enolide] | >2.1 | 19.2 ± 0.84 |  | IC50 at 48 h [3, 6]: > 40 µM |
| COc1cc([C@@H]2c3cc4c(cc3[C@@H](O[C@@H]3O[C@@H]5CO[C@@H](C)O[C@H]5[C@H](O)[C@H]3O)[C@H]3COC(=O)[C@H]23)OCO4)cc(OC)c1O [Etoposide, reference compound] | 8.2 | 2.4 ± 0.1 |  | IC50 at 48 h [3, 6]: 19.5 ± 0.16 µM |
